Data set [1] can be described thus: Oxidation stability (relative percentage of QH) after open storage in a constant temperature bath, HPLC. It counts as physicochemical. As to conditions: open system, 1 month, relative to initial reduced coenzyme Q10 content as 100; for Relative percentage of QH (25° C., 1M): 25° C. and RH 60%; for Relative percentage of QH (40° C., 1M): 40° C. and RH 75%. As for the experimental part: The oxidation stability of the reduced coenzyme Q10 crystals obtained in Examples was evaluated by the following method.
The reduced coenzyme Q10 crystals obtained in Examples were stored in an open system for one month in a constant temperature bath set at 40° C. and RH (relative humidity) of 75% and at 25° C. and RH of 60% and then subjected to high-performance liquid chromatography to calculate the content ratio of reduced coenzyme Q10 (QH) and oxidized coenzyme Q10.
The oxidation stability of reduced coenzyme Q10 crystal was calculated as a relative percentage of QH by the following formula based on the relative value with the content of reduced coenzyme Q10 for the initial reduced coenzyme Q10 crystal before storage in a constant temperature bath, i.e., the content of reduced coenzyme Q10 when measured using the crystals obtained in Examples immediately after obtaining the crystals, as 100.
Relative percentage of QH (%)=Content of reduced coenzyme Q10 after storage/Content of initial reduced coenzyme Q10×100
Conditions for the high performance liquid chromatography, by which the reduced coenzyme Q10 concentration and the oxidized coenzyme Q10 concentration were measured, are shown below.
• Column: SYMMETRY C18 (manufactured by Waters); 250 mm (length), 4.6 mm (inner diameter) • Mobile phase: C2H5OH:CH3OH=4:3 (v:v) • Detection wavelength: 210 nm • Flow rate: 1 ml/min

A short description of data set [2]: Saturation concentration in an alcohol. It counts as physicochemical.
The conditions of data set [3]: reported in Patent Literature 4; cited from earlier work.

The text below walks through data of patent US20240166589A1, “METHOD FOR PRODUCING FORM-II TYPE REDUCED COENZYME Q10 CRYSTAL OR CRYSTALLINE SOLID OF SAME, AND CRYSTALLIZING APPARATUS” (KANEKA CORPORATION, priority 2021, published 2024).

`COc1c(O)c(C)c(C/C=C(\C)CC/C=C(\C)CC/C=C(\C)CC/C=C(\C)CC/C=C(\C)CC/C=C(\C)CC/C=C(\C)CC/C=C(\C)CC/C=C(\C)CCC=C(C)C)c(O)c1OC` [Example 1, reduced coenzyme Q10]: in data set [1], the “Relative percentage of QH (25° C., 1M)” value is listed as 91.8% and the “Relative percentage of QH (40° C., 1M)” value was 88.1%.
In the case of `COc1c(O)c(C)c(C/C=C(\C)CC/C=C(\C)CC/C=C(\C)CC/C=C(\C)CC/C=C(\C)CC/C=C(\C)CC/C=C(\C)CC/C=C(\C)CC/C=C(\C)CCC=C(C)C)c(O)c1OC` [Example 2, reduced coenzyme Q10], in data set [1], the “Relative percentage of QH (25° C., 1M)” value was 85.1% and the “Relative percentage of QH (40° C., 1M)” value turned out to be 81.4%.
On the same counts, the results for `COc1c(O)c(C)c(C/C=C(\C)CC/C=C(\C)CC/C=C(\C)CC/C=C(\C)CC/C=C(\C)CC/C=C(\C)CC/C=C(\C)CC/C=C(\C)CC/C=C(\C)CCC=C(C)C)c(O)c1OC` [Example 3, reduced coenzyme Q10] are 89.4% and 87.3%.
On the same counts, the results for `COc1c(O)c(C)c(C/C=C(\C)CC/C=C(\C)CC/C=C(\C)CC/C=C(\C)CC/C=C(\C)CC/C=C(\C)CC/C=C(\C)CC/C=C(\C)CC/C=C(\C)CCC=C(C)C)c(O)c1OC` [Example 4, reduced coenzyme Q10] are 92.2% and 90.1%.
In the case of `COc1c(O)c(C)c(C/C=C(\C)CC/C=C(\C)CC/C=C(\C)CC/C=C(\C)CC/C=C(\C)CC/C=C(\C)CC/C=C(\C)CC/C=C(\C)CC/C=C(\C)CCC=C(C)C)c(O)c1OC` [reduced coenzyme Q10 Form II crystal, reduced coenzyme Q10], the “saturation concentration compared with Form I crystal” value in data set [2] is “lower than the saturation concentration of a Form I crystal”. Besides, the “stability compared with reduced coenzyme Q10 Form I crystal” value in data set [3] was “much more stable”.
